Reference: patent publication US5212179A, “Piperidine derivatives” (John Wyeth and Brother Limited, priority 1980, dated 1993)

Key:
[1] = system: p-chloroamphetamine (pCA)-induced stereotypy; test: Inhibition of p-chloroamphetamine (pCA)-induced stereotypy in rats; assay type: in vivo, male Sprague-Dawley rats; conditions: for ED50: Rattus norvegicus, po, 90 minutes before pCA 10 mg/kg i.p., results for succinate salt corrected for amount of active material, read-out: ED50 (dose required to produce 50% inhibition of pCA induced stereotypy); for ED50 / antagonism of pCA-induced stereotypy (in words): rats, p.o.; for antagonism of pCA-induced stereotypy (in words): 5 dose levels
Description: Representative compounds of formula IA were tested for their ability to inhibit pCA induced syndrome in rats by the standard procedure described below:
Inhibition of p-chloroamphetamine (pCA)-induced stereotypy
Vehicle or drug (5 dose levels) were administered p.o. to six groups of 6-8 male Sprague-Dawley rats (300-400 g) followed, 90 minutes later, by pCA (10 mg/kg i.p.). The animals were then placed in individual observation chambers and, 30 minutes after pCA administration, the intensity of the pCA-induced 5-HT syndrome was assessed according to the following scoring system: […]
Therefore, the maximum score for each animal was 10.
The inhibition of pCA induced stereotypy is calculated for each dose level as follows: [formula] where C=control group total score at 30 minutes post pCA.
T=group total score of treated group at 30 minutes post pCA.
For each dose a % effect is calculated.
The results obtained from the tests using 5 different dose levels of the drug allow the ED50 value (i.e. the dose required to produce 50% inhibition of pCA induced stereotypy) to be calculated.
The test was carried out using the free bases for compound C. Compound B was tested in the form of the succinate salt and the results corrected for amount of active material.

[2] = system: neuronal uptake of 5-hydroxytryptamine into slices of cerebral cortex; test: Inhibition of 5-hydroxytryptamine (5-HT) uptake in brain slices; assay type: biochemical; conditions: rat cerebral cortex slices, relative to imipramine
Description: Compounds of formula I were tested for ability to inhibit 5-hydroxytryptamine (5-HT) uptake in brain slices using the following procedure:
Concentration-response curves for the test compound and for the standard agent, imipramine, are obtained. The potency of the test compound is expressed in proportion to that of imipramine. Thus, the potency ratio for the test compound [formula]

[3] = system: 5-hydroxy-L-tryptophan (5-HTP) induced behavioural syndrome; test: Potentiation of 5-HTP induced behavioural syndrome, dose/response study in mice; assay type: in vivo; conditions: Mus musculus, po, 5-HTP 80 mg/kg i.p.
Description: (§1) Thus, this test can be used as an indication of in vivo 5-HT uptake inhibition.
a) Dose/response study in mice
Groups of 12 (2 subgroups of 6) female mice (18-22g) were used per dose, each group being housed in a separate cage for the duration of the experiment. Mice were dosed p.o. with either test compound or vehicle (0.5% HPMC) and 30 minutes later received a threshold dose of 5-HTP (80 mg/kg i.p.) and were placed in perspex cylinders (12" diameter).
The dose that produced the syndrome in 50% of the mice was calculated using the method of Litchfield and Wilcoxon, […]

[4] = system: 5-hydroxy-L-tryptophan (5-HTP) induced behavioural syndrome; test: Potentiation of 5-HTP induced behavioural syndrome, dose/response study in rats; assay type: in vivo; conditions: Rattus norvegicus, ip, 5-HTP 70 mg/kg i.p.
Description: as §1
b) Dose/Response study in rats
Groups of 6 male rats (150 g) were dosed with test compound suspended in HPMC. Thirty minutes later 5-HTP (70 mg/kg 5 i.p.) was given and the number of signs/rat recorded between 20 and 35 minutes post 5-HTP. Linear regression analysis of the results was performed and the ED50 calculated from this.

[5] = system: p-chloroamphetamine (pCA) induced hyperactivity; test: Inhibition of p-chloroamphetamine (pCA) induced hyperactivity in mice; assay type: in vivo; conditions: Mus musculus, po, female mice, 50 mg/kg po, pCA 20 mg/kg ip, 10-30 minutes post pCA
Description: The following test procedure was used to test for ability to inhibit p-chloroamphetamine induced hyperactivity.
Three groups of 4 female mice (20-24 g) receive the test compounds (50 mg/kg po) and a fourth group the requisite volume of vehicle. Thirty minutes later all the animals are given 20 mg/kg p-chloroamphetamine (pCA) ip. The grouped mice are placed immediately in square plastic cages in activity monitors and their motor activity recorded over the period 10-30 minutes post pCA. This procedure is repeated three more times so that four groups of mice are used per treatment and each activity monitor is used with all treatments in turn. The inhibition of pCA induced hyperactivity is calculated thus: [formula] where C=mean activity of control groups 10-30 minutes post pCA.
T=mean activity of treated groups 10-30 minutes post pCA.
This test is used as an in vivo screen for detection of 5-hydroxytryptamineuptake inhibitors.
Compounds giving >50% inhibition are considered of special interest. In such a test the following compounds were particularly active: […]

[6] = system: 5-hydroxy-L-tryptophan induced behavioural syndrome; test: Potentiation of 5-hydroxytryptophan (5-HTP)-induced behaviour in rats; assay type: in vivo, male Sprague-Dawley rats; conditions: Rattus norvegicus, po, 5-HTP 50 mg/kg s.c., citrate salt, corrected for amount of base
Description: The compound (C) was also tested for its ability to potentiate 5-hydroxy-L-tryptophan induced behavioural syndrome in rats. The test procedure is described below
Potentiation of 5-hydroxytryptophan (5-HTP)-induced behaviour
Groups of 10 male Sprague-Dawley rats (310-360 g) were dosed p.o. with vehicle or drugs. Ninety minutes later 5-HTP (50 mg/kg s.c.) was administered and the animals placed in individual observation chambers (peripheral decarboxylation was prevented by 25 mg/kg i.p. carbidopa administered 60 minutes before 5-HTP). Head shakes were counted over the period 30-45 minutes after 5-HTP and the intensity of the 5-HT syndrome was scored immediately afterwards using the system described for the pCA procedure above. Percentage potentiation of syndrome was calculated as follows: […]
Percentage potentiation was calculated from the following: [formula]

[7] = system: uptake of ^3 H noradrenaline into rat brain synaptosomes; test: Inhibition of 3H noradrenaline uptake into rat brain synaptosomes; assay type: biochemical, male Sprague Dawley rats; conditions: 37° C., 4 minutes, read-out: IC50 NA uptake
Description: (§2) The test procedure involved obtaining synaptosomal preparations from male Sprague Dawley rats according to the method of Grey and Whittaker* as modified by Wood and Wyllie.** Aliquots of the synaptosomal preparation were then incubated with tritrated noradrenaline (NA) or 5-HT at a temperature of 37° C. for 4 minutes. The active synaptosomal accumulation of labelled substrate was measured by filtration and scintillation counting. The effect at a range of concentrations of test compound enabled IC50 values and selectivity ratios to be calculated.
(§3) * Grey and Whittaker,--J. Anat. 96 79 (1962)
(§4) ** Wood and Wyllie, J. Neurochemistry, 37, 795 (1981)

[8] = system: uptake of 5-HT into rat brain synaptosomes; test: Inhibition of 5-HT uptake into rat brain synaptosomes; assay type: biochemical, male Sprague Dawley rats
Description: as §2, §3, §4

For O=C(NC(=O)c1ccncc1)NC1CCN(Cc2ccc3cc(F)ccc3c2)CC1 [Example 63, N-[[[1-[(6-Fluoro-2-naphthalenyl)methyl]-4-piperidinyl]amino]carbonyl]-4-pyridinecarboxamide], the ED50 [1] was 3.8 mg/kg and the “antagonism of pCA-induced stereotypy (in words)” value [1] was “antagonised pCA-induced stereotypy in a dose-dependent manner”.
For CN(C)CCCN1c2ccccc2CCc2ccccc21 [imipramine, reference compound], the “potency ratio (imipramine=1.0)” value [2] was 1.0.
CN(C)CCCN1c2ccccc2CCc2ccc(Cl)cc21 [clomipramine, reference compound] showed an ED50 [3] of 18 mg/kg and an ED50 [4] of 39.2 mg/kg.
Molecule CC(c1ccc2ccccc2c1)N1CCC(NC(=O)NC(=O)c2ccccc2)CC1 (centres unmarked) [Example 21, 1-Benzoyl-3-[1-(1-(naphth-2-yl)ethyl)-piperid-4-yl]urea] has an inhibition in vivo at 50 mg/kg [5] of 71.7%.
In the case of O=C(NC(=O)c1ccccc1)NC1CCN(Cc2ccc3c(c2)CCC3)CC1 [Example 20, 1-Benzoyl-3-[1-(indan-5-ylmethyl)-piperid-4-yl]urea], the inhibition in vivo at 50 mg/kg [5] is reported as 59.3%.
With CCc1ccc(CN2CCC(NC(=O)NC(=O)c3ccccc3)CC2)cc1 [Example 15, 1-Benzoyl-3-[1-(4-ethylbenzyl)piperid-4-yl]urea] the inhibition in vivo at 50 mg/kg [5] was 72.9%.
Molecule O=C(NC(=O)c1ccccc1)NC1CCN(Cc2ccc3c(c2)CCCC3)CC1 [Example 14, 1-Benzoyl-3-[1-(5,6,7,8-tetrahydro-naphth-2-ylmethyl)piperid-4-yl]urea] has an inhibition in vivo at 50 mg/kg [5] of 69.4%.
In the case of O=C(NC(=O)c1cccnc1)NC1CCN(Cc2ccc3cc(F)ccc3c2)CC1 [Example 62, N[[[1-[(6-Fluoro-2-naphthalenyl)methyl]-4-piperidinyl]amino]carbonyl]-3-pyridinecarboxamide], the inhibition of syndrome ([1]; At 50 mg/kg) is reported as 99%, the ED50 [1] is reported as 2.5 mg/kg and the “antagonism of pCA-induced stereotypy (in words)” value [1] is reported as “antagonised pCA-induced stereotypy in a dose-dependent manner”. For the same molecule, the ED50 [6] was 5 mg/kg.
For Cc1ccc(CN2CCC(NC(=O)NC(=O)c3ccccc3)CC2)cc1C [Example 6, 1-Benzoyl-3-[1-(3,4-dimethylbenzyl)piperid-4-yl]urea], the inhibition in vivo at 50 mg/kg [5] was 68.9%.
CC(C)c1ccc(CN2CCC(NC(=O)NC(=O)c3ccccc3)CC2)cc1 [Example 3, 1-Benzoyl-3-[1-(4-isopropylbenzyl)piperid-4-yl]urea] gave an inhibition in vivo at 50 mg/kg [5] of 49%.
For O=C(NC(=O)c1ccccc1)NC1CCN(Cc2cccc3ccccc23)CC1 [Example 2, 1-Benzoyl-3-[1-(naphth-1-ylmethyl)piperid-4-yl]urea], the inhibition in vivo at 50 mg/kg [5] was 56.4%.
O=C(NC(=O)c1ccccc1)NC1CCN(Cc2ccc3ccccc3c2)CC1 [Example 1, 1-Benzoyl-3-[1-(naphth-2-ylmethyl)piperid-4-yl]urea] was tested, and the “potency ratio (imipramine=1.0)” value [2] was 8.8, the ED50 [3] was 7.2 mg/kg and the inhibition in vivo at 50 mg/kg [5] was 67.5%. The IC50 [7] was 20 µM, the ED50 [4] was 5.3 mg/kg and the “Selectivity Ratio” value ([8]; 5-HT uptake relative to NA uptake) was 455. For the same molecule, the IC50 ([8]; 37° C., 4 minutes) was 0.044 µM.
